Test results as given in paper PMC7914463, “Caffeic Acid Modulates Processes Associated with Intestinal Inflammation” (Nutrients, 2021).
Like-named read-outs stand apart in the source and are kept apart here.

Biological target: T1, angiotensin-converting enzyme (ACE) (Sus scrofa, UniProt F1RRW5)
T1 construct: ACE isolated from porcine kidneys (EC 3.4.15.1)
T1 sequence (F1RRW5 34-1309): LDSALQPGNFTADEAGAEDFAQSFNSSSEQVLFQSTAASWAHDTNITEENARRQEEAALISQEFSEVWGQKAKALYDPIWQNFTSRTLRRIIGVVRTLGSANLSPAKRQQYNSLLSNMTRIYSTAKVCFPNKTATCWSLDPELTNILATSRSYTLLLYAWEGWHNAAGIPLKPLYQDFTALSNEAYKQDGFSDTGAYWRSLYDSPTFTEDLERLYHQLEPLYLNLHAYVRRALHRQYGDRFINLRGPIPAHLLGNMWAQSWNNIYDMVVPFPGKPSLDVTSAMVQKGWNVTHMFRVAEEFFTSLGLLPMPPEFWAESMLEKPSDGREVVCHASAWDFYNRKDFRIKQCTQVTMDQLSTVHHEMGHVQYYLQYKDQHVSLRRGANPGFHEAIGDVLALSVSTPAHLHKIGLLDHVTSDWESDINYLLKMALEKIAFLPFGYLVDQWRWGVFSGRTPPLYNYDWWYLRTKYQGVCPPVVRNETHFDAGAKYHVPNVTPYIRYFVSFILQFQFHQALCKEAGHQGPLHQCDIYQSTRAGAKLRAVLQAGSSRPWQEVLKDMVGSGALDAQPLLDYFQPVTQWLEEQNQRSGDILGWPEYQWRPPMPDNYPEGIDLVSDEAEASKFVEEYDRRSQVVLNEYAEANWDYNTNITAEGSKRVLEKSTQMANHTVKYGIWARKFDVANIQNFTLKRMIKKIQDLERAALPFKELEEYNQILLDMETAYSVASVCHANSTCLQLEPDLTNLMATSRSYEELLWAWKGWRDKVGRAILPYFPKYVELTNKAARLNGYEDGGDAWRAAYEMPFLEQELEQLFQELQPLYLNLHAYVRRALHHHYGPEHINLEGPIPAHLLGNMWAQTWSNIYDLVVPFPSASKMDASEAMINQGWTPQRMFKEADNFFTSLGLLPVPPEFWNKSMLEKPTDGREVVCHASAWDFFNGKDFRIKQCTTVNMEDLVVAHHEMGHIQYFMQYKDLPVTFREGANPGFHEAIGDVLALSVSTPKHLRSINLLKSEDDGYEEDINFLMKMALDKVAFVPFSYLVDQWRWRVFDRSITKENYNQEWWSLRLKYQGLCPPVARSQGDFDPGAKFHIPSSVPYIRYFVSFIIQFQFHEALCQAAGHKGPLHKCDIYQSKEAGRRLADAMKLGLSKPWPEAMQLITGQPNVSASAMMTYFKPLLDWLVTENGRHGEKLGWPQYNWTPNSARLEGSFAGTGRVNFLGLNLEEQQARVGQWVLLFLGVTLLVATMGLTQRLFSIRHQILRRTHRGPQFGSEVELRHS
Test: fluorescence assay, hydrolysis of Abz-Gly-Phe(NO2)-Pro
Format: biochemical

Structure (SMILES)	IC50	IC50 (read-out: IC50 (μg/mL) (converted))
O=C1O[C@H]([C@@H](O)CO)C(O)=C1O [AA, L-ascorbic acid]	81.3 mM	–
N[C@@H](CCC(=O)N[C@@H](CS)C(=O)NCC(=O)O)C(=O)O [GSH]	12.79 ± 1.70 µg/mL	–
O=C(O)/C=C/c1ccc(O)c(O)c1 [CFA, Caffeic acid]	–	8.97 mM
